Test results: patent US20120053200A1, “BACE 2 INHIBITORS” (priority 2010, published 2012)

Biological target: T1, BACE2 (Rattus norvegicus, UniProt Q6IE75)
T1 construct: endogenous cellular BACE2 in the Ins1e rat cell line; endogenous in cells; host or cells: INS-TMEM27 (INS1e-derived rat beta-cell line with doxycycline-inducible full-length hTMEM27)
T1 sequence (Q6IE75 63-514): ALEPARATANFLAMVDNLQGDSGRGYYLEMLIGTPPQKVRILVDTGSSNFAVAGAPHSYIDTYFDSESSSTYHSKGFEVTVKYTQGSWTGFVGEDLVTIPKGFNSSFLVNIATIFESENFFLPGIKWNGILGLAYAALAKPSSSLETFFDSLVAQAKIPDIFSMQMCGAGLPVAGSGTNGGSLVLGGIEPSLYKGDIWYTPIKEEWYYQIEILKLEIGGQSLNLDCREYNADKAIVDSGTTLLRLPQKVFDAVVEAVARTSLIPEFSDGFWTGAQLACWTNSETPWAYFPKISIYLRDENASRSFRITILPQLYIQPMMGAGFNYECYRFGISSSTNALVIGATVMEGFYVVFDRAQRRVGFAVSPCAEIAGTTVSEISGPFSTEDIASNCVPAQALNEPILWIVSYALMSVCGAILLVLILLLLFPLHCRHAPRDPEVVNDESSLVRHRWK
Test: Assay for BACE inhibition by measuring cellular TMEM27 cleavage (INS-TMEM27 cells, ELISA of shed TMEM27)
Type: cell-based
Conditions: inhibition of human TMEM27 cleavage by endogenous cellular BACE2 in INS1e-derived INS-TMEM27 rat cell line; ELISA of shed TMEM27 in supernatant
Summary of the method: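 Rat INS1e-derived cells with doxycycline-inducible full-length human TMEM27, cleaved by endogenous BACE2. After 2 days' culture, inhibitor added; 2 h later, doxycycline to 500 ng/ml final, then 46 h at 37 °C. Shed TMEM27 in medium quantified by sandwich ELISA; IC50 from curve fit.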

Row | IC50 | Molecule
1 | 314 nM | O=C(N[C@@H](Cc1ccccc1)[C@H](O)CNCc1cccc(C(F)(F)F)c1)c1cccc(C(=O)N2CCC[C@@H]2c2ccccc2)c1 [Example 66, N-[(1S,2R)-1-Benzyl-2-hydroxy-3-(3-trifluoromethyl-benzylamino)-propyl]-3-((R)-2-phenyl-pyrrolidine-1-carbonyl)-benzamide]
2 | 4 nM | O=C(N[C@@H](Cc1ccccc1)[C@H](O)CNCc1cccc(C(F)(F)F)c1)c1cccc(C(=O)N2CCC[C@H]2c2ccc(F)cc2)c1 [Example 67, N-[(1S,2R)-1-Benzyl-2-hydroxy-3-(3-trifluoromethyl-benzylamino)-propyl]-3-[(S)-2-(4-fluoro-phenyl)-pyrrolidine-1-carbonyl]-benzamide]
3 | 2 nM | O=C(N[C@@H](Cc1ccccc1)[C@H](O)CNCc1cccc(C(F)(F)F)c1)c1cccc(C(=O)N2CCCC2c2cccc(F)c2)c1 (stereo partly drawn) [Example 68, N-[(1S,2R)-1-Benzyl-2-hydroxy-3-(3-trifluoromethyl-benzylamino)-propyl]-3-[2-(3-fluoro-phenyl)-pyrrolidine-1-carbonyl]-benzamide]
4 | 7 nM | O=C(N[C@@H](Cc1ccccc1)[C@H](O)CNCc1cccc(C(F)(F)F)c1)c1cccc(C(=O)N2CCCC2C2CCCCC2)c1 (stereo partly drawn) [Example 69, N-[(1S,2R)-1-Benzyl-2-hydroxy-3-(3-trifluoromethyl-benzylamino)-propyl]-3-(2-cyclohexyl-pyrrolidine-1-carbonyl)-benzamide]
5 | 147 nM | CC(C)CC1CCCN1C(=O)c1cccc(C(=O)N[C@@H](Cc2ccccc2)[C@H](O)CNCc2cccc(C(F)(F)F)c2)c1 (stereo partly drawn) [Example 70, N-[(1S,2R)-1-Benzyl-2-hydroxy-3-(3-trifluoromethyl-benzylamino)-propyl]-3-(2-isobutyl-pyrrolidine-1-carbonyl)-benzamide]
6 | 484 nM | O=C(N[C@@H](Cc1ccccc1)[C@H](O)CNCc1cccc(C(F)(F)F)c1)c1cccc(C(=O)N2CCCC2C(=O)c2ccccc2)c1 (stereo partly drawn) [Example 71, 3-(2-Benzoyl-pyrrolidine-1-carbonyl)-N-[(1S,2R)-1-benzyl-2-hydroxy-3-(3-trifluoromethyl-benzylamino)-propyl]-benzamide]
7 | 66 nM | O=C(N[C@@H](Cc1ccccc1)[C@H](O)CNCc1cccc(C(F)(F)F)c1)c1cccc(C(=O)N2CCCC2C2CCCC2)c1 (stereo partly drawn) [Example 72, N-[(1S,2R)-1-Benzyl-2-hydroxy-3-(3-trifluoromethyl-benzylamino)-propyl]-3-(2-cyclopentyl-pyrrolidine-1-carbonyl)-benzamide]
8 | 56 nM | CC(C)(C)C1CCCN1C(=O)c1cccc(C(=O)N[C@@H](Cc2ccccc2)[C@H](O)CNCc2cccc(C(F)(F)F)c2)c1 (stereo partly drawn) [Example 73, N-[(1S,2R)-1-Benzyl-2-hydroxy-3-(3-trifluoromethyl-benzylamino)-propyl]-3-(2-tert-butyl-pyrrolidine-1-carbonyl)-benzamide]
9 | 255 nM | Cc1csc(CN(C)C(=O)c2cc(C(=O)N[C@@H](Cc3ccccc3)[C@H](O)CNCc3cncc(C(C)(C)F)c3)cc(N(C)S(C)(=O)=O)c2)n1 [Example 74, N-((1S,2R)-1-Benzyl-3-{[5-(1-fluoro-1-methyl-ethyl)-pyridin-3-ylmethyl]-amino}-2-hydroxy-propyl)-5-(methanesulfonyl-methyl-amino)-N′-methyl-N′-(4-methyl-thiazol-2-ylmethyl)-isophthalamide]

Row | Molecule | IC50
10 | N-[(1S,2R)-1-Benzyl-2-hydroxy-3-(3-trifluoromethyl-benzylamino)-propyl]-3-(methanesulfonyl-methyl-amino)-5-(2-phenyl-pyrrolidine-1-carbonyl)-benzamide [Example 50] | 3 nM
